Laboratory results taken from patent US12391721B2, “Crystal forms of beta-nicotinamide mononucleotide” (Metro International Biotech, LLC, priority 2015, dated 2025).

Assays:
Assay type in all cases: physicochemical
[1] = Three month stability and forced degradation study: particle morphology by polarised light microscopy (PLM); conditions: Replicate 1
Procedure: Samples were studied on a Leica LM/DM polarised light microscope with a digital video camera for image capture. A small amount of each sample was placed on a glass slide, 15 mounted in immersion oil and covered with a glass slip, the individual particles being separated as well as possible. The sample was viewed with appropriate magnification and partially polarised light, coupled to a λ false-color filter.
(§1) […] The samples were prepared in duplicate with an offset of 2 weeks. Each replicate was stored in a different container.
(§2) Replicate 1 was charged in an open HPLC vial that was placed in a sealed scintillation vial containing a saturated solution of the relevant inorganic salt (Table 2). These samples were analysed by HPLC, 1H NMR, XRPD and Polarized Light Microscopy (PLM) at 4, 8, and 12 week time points.

[2] = Three month stability and forced degradation study: visual observations of stored solids
Procedure: as §1, §2
(§3) Replicate 2 was stored in sealed box with a recipient containing a saturated solution of the relevant inorganic salt (Table 2). These samples were analysed by HPLC at 2, 6, 10 and 12 week time points. Samples at 25° C./0% RH were stored in a sealed box containing a desiccant agent (P2O5).

[3] = Three month stability and forced degradation study: HPLC purity of stored solids; conditions: for Known Impurity* (%) (nicotinamide, RRT = 1.73 min) / Purity (%): HPLC
Procedure: Purity analysis was performed on an Agilent HP1100 series system equipped with a diode array detector and using ChemStation software vB.04.03 using the method detailed below in Table 1.
as §1, §2, §3

[4] = Three month stability and forced degradation study: solid form by XRPD after storage; conditions: for XRPD: Replicate 1
Procedure: X-Ray Powder Diffraction patterns were collected on a Bruker D8 diffractometer using Cu Kα radiation (40 kV, 40 mA), θ-2θ goniometer, and divergence of V4 and receiving slits, a Ge monochromator and a Lynxeye detector. The instrument is performance checked using a certified Corundum standard (NIST 1976). The software used for data collection was Diffrac Plus XRD Commander v2.6.1 and the data were analysed and presented using Diffrac Plus EVA v15.0.0.0.
Samples were run under ambient conditions as flat plate specimens using powder as received. The sample was gently packed into a cavity cut into polished, zero-background (510) silicon wafer. The sample was rotated in its own plane during analysis. The details of the data collection are: • Angular range: 2 to 42° 2θ • Step size: 0.05° 2θ • Collection time: 0.5 s/step HPLC
as §1, §2

[5] = solid stored 25° C., 0% RH, 4 weeks
[6] = solid stored 25° C., 0% RH, 8 weeks
[7] = solid stored 25° C., 0% RH, 12 weeks
[8] = solid stored 25° C., 60% RH, 4 weeks
[9] = solid stored 25° C., 60% RH, 8 weeks
[10] = solid stored 25° C., 60% RH, 12 weeks
[11] = solid stored 25° C., 97% RH, 4 weeks
[12] = solid stored 25° C., 97% RH, 8 weeks
[13] = solid stored 25° C., 97% RH, 12 weeks
[14] = solid stored 40° C., 75% RH, 4 weeks
[15] = solid stored 40° C., 75% RH, 8 weeks
[16] = solid stored 40° C., 75% RH, 12 weeks
[17] = solid stored 25° C., 0% RH, 4 weeks, Replicate 1
[18] = solid stored 25° C., 0% RH, 8 weeks, Replicate 1
[19] = solid stored 25° C., 0% RH, 12 weeks, Replicate 1
[20] = solid stored 25° C., 60% RH, 2 weeks, Replicate 2
[21] = solid stored 25° C., 60% RH, 4 weeks, Replicate 1
[22] = solid stored 25° C., 60% RH, 6 weeks, Replicate 2
[23] = solid stored 25° C., 60% RH, 8 weeks, Replicate 1
[24] = solid stored 25° C., 60% RH, 10 weeks, Replicate 2
[25] = solid stored 25° C., 60% RH, 12 weeks, Replicate 1
[26] = solid stored 25° C., 60% RH, 12 weeks, Replicate 2
[27] = solid stored 25° C., 97% RH, 2 weeks, Replicate 2
[28] = solid stored 25° C., 97% RH, 4 weeks, Replicate 1
[29] = solid stored 25° C., 97% RH, 6 weeks, Replicate 2
[30] = solid stored 25° C., 97% RH, 8 weeks, Replicate 1
[31] = solid stored 25° C., 97% RH, 10 weeks, Replicate 2
[32] = solid stored 25° C., 97% RH, 12 weeks, Replicate 1
[33] = solid stored 25° C., 97% RH, 12 weeks, Replicate 2
[34] = solid stored 40° C., 75% RH, 2 weeks, Replicate 2
[35] = solid stored 40° C., 75% RH, 4 weeks, Replicate 1
[36] = solid stored 40° C., 75% RH, 6 weeks, Replicate 2
[37] = solid stored 40° C., 75% RH, 8 weeks, Replicate 1
[38] = solid stored 40° C., 75% RH, 10 weeks, Replicate 2
[39] = solid stored 40° C., 75% RH, 12 weeks, Replicate 1
[40] = solid stored 40° C., 75% RH, 12 weeks, Replicate 2
[41] = solid stored 25° C., 0% RH, 12 weeks, Replicate 1, listed as Crystalline Form 1
[42] = t = 0, baseline of the stability study, listed as RME-1304-063-01

NC(=O)c1ccc[n+]([C@@H]2O[C@H](COP(=O)([O-])O)[C@@H](O)[C@H]2O)c1 [RME-1304-63-01, β-nicotinamide mononucleotide]
PLM [1, 5]: acicular | PLM [1, 6]: acicular | PLM [1, 7]: acicular | PLM [1, 8]: acicular | PLM [1, 9]: acicular | PLM [1, 10]: acicular | PLM [1, 11]: acicular | PLM [1, 12]: acicular | PLM [1, 13]: acicular | PLM [1, 14]: acicular | PLM [1, 15]: acicular | PLM [1, 16]: acicular | Observations [2, 17]: white solid | Observations [2, 18]: white solid | Observations [2, 19]: white solid | Observations [2, 20]: white solid | Observations [2, 21]: light brown | Observations [2, 22]: light brown | Observations [2, 23]: light brown | Observations [2, 24]: light brown | Observations [2, 25]: light brown | Observations [2, 26]: light brown | Observations [2, 27]: white solid | Observations [2, 28]: white solid | Observations [2, 29]: white solid, | Observations [2, 30]: white solid | Observations [2, 31]: white solid, wet | Observations [2, 32]: white solid, | Observations [2, 33]: white solid, wet | Observations [2, 34]: white solid | Observations [2, 35]: white solid | Observations [2, 36]: white solid | Observations [2, 37]: white solid | Observations [2, 38]: light brown | Observations [2, 39]: brown solid, | Observations [2, 40]: light brown | chemical purity after storage ([3]; 4 weeks of storage at all the tested conditions): ~99.3% | Known Impurity* (%) (nicotinamide, RRT = 1.73 min) [3, 17]: 0.25% | Purity (%) [3, 17]: 99.4% | Known Impurity* (%) (nicotinamide, RRT = 1.73 min) [3, 18]: 0.33% | Purity (%) [3, 18]: 99.2% | Known Impurity* (%) (nicotinamide, RRT = 1.73 min) [3, 19]: 0.38% | Purity (%) [3, 19]: 98.9% | Known Impurity* (%) (nicotinamide, RRT = 1.73 min) [3, 41]: 0.38% | Purity (%) [3, 41]: 98.9% | Known Impurity* (%) (nicotinamide, RRT = 1.73 min) [3, 20]: 0.19% | Purity (%) [3, 20]: 99.6% | Known Impurity* (%) (nicotinamide, RRT = 1.73 min) [3, 21]: 0.34% | Purity (%) [3, 21]: 99.3% | Known Impurity* (%) (nicotinamide, RRT = 1.73 min) [3, 22]: 0.21% | Purity (%) [3, 22]: 99.5% | Known Impurity* (%) (nicotinamide, RRT = 1.73 min) [3, 23]: 0.63% | Purity (%) [3, 23]: 98.9% | Known Impurity* (%) (nicotinamide, RRT = 1.73 min) [3, 24]: 0.35% | Purity (%) [3, 24]: 99.1% | Known Impurity* (%) (nicotinamide, RRT = 1.73 min) [3, 25]: 0.98% | Purity (%) [3, 25]: 98.2% | Known Impurity* (%) (nicotinamide, RRT = 1.73 min) [3, 26]: 0.23% | Purity (%) [3, 26]: 98.8% | Known Impurity* (%) (nicotinamide, RRT = 1.73 min) [3, 27]: 0.22% | Purity (%) [3, 27]: 99.5% | Known Impurity* (%) (nicotinamide, RRT = 1.73 min) [3, 28]: 0.49% | Purity (%) [3, 28]: 99.3% | Known Impurity* (%) (nicotinamide, RRT = 1.73 min) [3, 29]: 0.38% | Purity (%) [3, 29]: 99.4% | Known Impurity* (%) (nicotinamide, RRT = 1.73 min) [3, 30]: 1.38% | Purity (%) [3, 30]: 98.3% | Known Impurity* (%) (nicotinamide, RRT = 1.73 min) [3, 31]: 0.77% | Purity (%) [3, 31]: 98.6% | Known Impurity* (%) (nicotinamide, RRT = 1.73 min) [3, 32]: 3.46% | Purity (%) [3, 32]: ~95.8^$ % | Purity (%) ([3]; solid stored 25° C., 97% RH, 12 weeks, Replicate 1, listed as Crystalline Form 1): 95.8% | Known Impurity* (%) (nicotinamide, RRT = 1.73 min) [3, 33]: 0.55% | Purity (%) [3, 33]: 98.4% | Known Impurity* (%) (nicotinamide, RRT = 1.73 min) [3, 34]: 0.22% | Purity (%) [3, 34]: 99.5% | Known Impurity* (%) (nicotinamide, RRT = 1.73 min) [3, 35]: 0.46% | Purity (%) [3, 35]: 99.2% | Known Impurity* (%) (nicotinamide, RRT = 1.73 min) [3, 36]: 0.27% | Purity (%) [3, 36]: 99.4% | Known Impurity* (%) (nicotinamide, RRT = 1.73 min) [3, 37]: 1.38% | Purity (%) [3, 37]: 97.7% | Known Impurity* (%) (nicotinamide, RRT = 1.73 min) [3, 38]: 0.49% | Purity (%) [3, 38]: 98.8% | Known Impurity* (%) (nicotinamide, RRT = 1.73 min) [3, 39]: 3.46% | Purity (%) [3, 39]: 90.7% | Known Impurity* (%) (nicotinamide, RRT = 1.73 min) [3, 40]: 0.77% | Purity (%) [3, 40]: 97.4% | HPLC purity profile, Area % of main peak (RRT 1.00) [3, 42]: 99.52 Area % | HPLC purity profile, Area % of peak at RRT 1.76 / 1.74 (nicotinamide) [3, 42]: 0.12 Area % | nicotinamide impurity ([3]; time 0): 0.12% | Purity ([3]; time 0, listed as Crystalline Form 1): 99.5% | solid form and particle morphology after storage ([4]; all conditions tested): remained unchanged | XRPD [4, 5]: Unchanged | XRPD [4, 6]: Unchanged | XRPD [4, 7]: Unchanged | XRPD [4, 8]: Unchanged | XRPD [4, 9]: Unchanged | XRPD [4, 10]: Unchanged | XRPD [4, 11]: Unchanged | XRPD [4, 12]: Unchanged | XRPD [4, 13]: Unchanged | XRPD [4, 14]: Unchanged | XRPD [4, 15]: Unchanged | XRPD [4, 16]: Unchanged
